The target in data set [1] is T1, human cannabinoid CB1 receptor (Homo sapiens, UniProt P21554).
T1 construct: expressed in transfected cells; host or cells: Chinese hamster ovary (CHO) cells, stably transfected; membrane preparation
Put plainly: In vitro affinity for cannabinoid-CB1 receptors ([3H]CP-55,940 radioligand binding, CHO cell membranes). Particulars: for CB1/CB2 ratio: CB1/CB2 receptor subtype selectivity (affinity ratio; numerically CB2 nM value divided by CB1 nM value). Here is the method:
In Vitro Affinity for Cannabinoid-CB1 Receptors
After incubation of a freshly prepared cell membrane preparation with the [^3H]-ligand, with or without addition of compounds of the invention, separation of bound and free ligand is performed by filtration over glassfiber filters. Radioactivity on the filter is measured by liquid scintillation counting.
The affinity of the compounds of the invention for CB1 receptors was determined as described above. […] Pharmacokinetic, pharmacodynamic, and other considerations may alter the dose actually administered to a higher or lower value. The dosage expediently administered is 0.001-1000 mg/kg, preferably 0.1-100 mg/kg of patient's bodyweight.

The target in data set [2] is T2, human cannabinoid CB2 receptor (Homo sapiens, UniProt P34972).
T2 construct: expressed in transfected cells; host or cells: Chinese hamster ovary (CHO) cells, stably transfected; membrane preparation
Put plainly: In vitro affinity for cannabinoid-CB2 receptors ([3H]CP-55,940 radioligand binding, CHO cell membranes). Particulars: membranes of CHO cells stably transfected with human CB2, mean of at least three independent experiments. Here is the method:
In Vitro Affinity for Cannabinoid-CB2 Receptors
The affinity of the compounds of the invention for cannabinoid CB2 receptors can be determined using membrane preparations of Chinese hamster ovary (CHO) cells in which the human cannabinoid CB2 receptor is stably transfected in conjunction with [^3H]CP-55,940 as radioligand. After incubation of a freshly prepared cell membrane preparation with the [^3H]-ligand, with or without addition of compounds of the invention, separation of bound and free ligand is performed by filtration over glassfiber filters. Radioactivity on the filter is measured by liquid scintillation counting.

SMILES strings stand for the structures. Like-named read-outs stand apart in the source and are kept apart here.

T2 sequence (P34972 whole entry): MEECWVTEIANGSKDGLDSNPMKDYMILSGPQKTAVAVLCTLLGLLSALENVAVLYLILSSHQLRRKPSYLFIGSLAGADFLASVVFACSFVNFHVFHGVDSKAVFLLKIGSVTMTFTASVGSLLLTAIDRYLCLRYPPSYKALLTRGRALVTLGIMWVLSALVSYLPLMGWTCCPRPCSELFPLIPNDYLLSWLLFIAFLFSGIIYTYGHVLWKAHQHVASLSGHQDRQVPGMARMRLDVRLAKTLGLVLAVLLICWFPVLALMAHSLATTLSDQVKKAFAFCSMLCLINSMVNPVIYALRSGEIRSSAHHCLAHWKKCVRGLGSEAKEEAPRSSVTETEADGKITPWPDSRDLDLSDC
T1 sequence (P21554 whole entry): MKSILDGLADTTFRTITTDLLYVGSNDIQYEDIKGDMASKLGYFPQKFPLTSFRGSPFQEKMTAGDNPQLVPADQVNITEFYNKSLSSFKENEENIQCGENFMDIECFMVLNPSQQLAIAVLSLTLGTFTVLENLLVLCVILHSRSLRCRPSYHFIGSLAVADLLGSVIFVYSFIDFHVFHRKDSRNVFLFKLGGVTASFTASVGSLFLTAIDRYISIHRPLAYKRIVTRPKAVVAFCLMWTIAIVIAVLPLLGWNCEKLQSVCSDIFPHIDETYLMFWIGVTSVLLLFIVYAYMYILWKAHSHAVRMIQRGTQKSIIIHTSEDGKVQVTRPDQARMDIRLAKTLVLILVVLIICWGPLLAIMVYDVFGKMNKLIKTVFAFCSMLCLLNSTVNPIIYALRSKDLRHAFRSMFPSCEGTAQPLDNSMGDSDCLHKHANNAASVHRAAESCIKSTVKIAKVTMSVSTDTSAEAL

Consider `CS(=O)(=O)c1c(C(=O)NN2CCCCC2)nc(-c2ccc(Cl)cc2Cl)n1-c1ccc(Cl)cc1` [compound 1, 1-(4-Chlorophenyl)-2-(2,4-dichlorophenyl)-5-methylsulfonyl-N-(piperidin-1-yl)-1H-imidazole-4-carboxamide], for which, in data set [1], the Ki turned out to be 12 nM and the CB1/CB2 ratio amounted to 638. The same compound displayed a Ki in data set [2] of 7650 nM.

In the case of `CSc1c(C(=O)NN2CCCCCC2)nc(-c2ccc(Cl)cc2Cl)n1-c1ccc(Cl)cc1` [compound 10, 1-(4-chlorophenyl)-2-(2,4-dichlorophenyl)-5-methylsulfanyl-N-(azepan-1-yl)-1H-imidazole-4-carboxamide], in data set [1], the CB1/CB2 ratio is given as over 142. Further, the Ki in data set [1] (receptor affinity, membranes of CHO cells stably transfected with human CB1, [3H]CP-55,940, mean of at least three independent experiments, read-out: CB1) is 7 nM; in data set [2], over 1000 nM.

In the case of `CSc1c(C(=O)NN2CCCC2)nc(-c2ccc(Cl)cc2Cl)n1-c1ccc(Cl)cc1` [compound 9, 1-(4-chlorophenyl)-2-(2,4-dichlorophenyl)-5-methylsulfanyl-N-(pyrrolidin-1-yl)-1H-imidazole-4-carboxamide], in data set [1], the Ki is 5 nM and the CB1/CB2 ratio is reported as over 200. The compound also returned a Ki in data set [2] of over 1000 nM.

As for `CSc1c(C(=O)NN2CCCCC2)nc(-c2ccc(Cl)cc2Cl)n1-c1ccc(Cl)cc1` [compound 6, 1-(4-Chlorophenyl)-2-(2,4-dichlorophenyl)-5-methylsulfanyl-N-(piperdin-1-yl)-1H-imidazole-4-carboxamide], the CB1/CB2 ratio in data set [1] was found to be 171. This compound also displayed a Ki in data set [2] of 2060 nM.

As for `CSc1c(C(=O)NN2CCCCC2)nc(-c2ccccc2Cl)n1-c1ccc(Cl)cc1`, the melting point – broadly, the temperature of the solid-liquid transition – was 192 to 193 °C.
